According to patent US8748421B2, “Triazine compounds as P13 kinase and MTOR inhibitors” (Wyeth LLC, priority 2009, dated 2014):

Assays:
[1] = biological target: PI3K-gamma (Homo sapiens, UniProt P48736); assay: PI3K-gamma fluorescence polarization assay; conditions: read-out: IC50 PI3Kγ
[2] = biological target: PI3K-alpha (Homo sapiens, UniProt P42336); assay: PI3K-alpha fluorescence polarization assay; conditions: read-out: IC50 PI3Kα
Sequence of PI3K-alpha (P42336 whole entry, species assumed): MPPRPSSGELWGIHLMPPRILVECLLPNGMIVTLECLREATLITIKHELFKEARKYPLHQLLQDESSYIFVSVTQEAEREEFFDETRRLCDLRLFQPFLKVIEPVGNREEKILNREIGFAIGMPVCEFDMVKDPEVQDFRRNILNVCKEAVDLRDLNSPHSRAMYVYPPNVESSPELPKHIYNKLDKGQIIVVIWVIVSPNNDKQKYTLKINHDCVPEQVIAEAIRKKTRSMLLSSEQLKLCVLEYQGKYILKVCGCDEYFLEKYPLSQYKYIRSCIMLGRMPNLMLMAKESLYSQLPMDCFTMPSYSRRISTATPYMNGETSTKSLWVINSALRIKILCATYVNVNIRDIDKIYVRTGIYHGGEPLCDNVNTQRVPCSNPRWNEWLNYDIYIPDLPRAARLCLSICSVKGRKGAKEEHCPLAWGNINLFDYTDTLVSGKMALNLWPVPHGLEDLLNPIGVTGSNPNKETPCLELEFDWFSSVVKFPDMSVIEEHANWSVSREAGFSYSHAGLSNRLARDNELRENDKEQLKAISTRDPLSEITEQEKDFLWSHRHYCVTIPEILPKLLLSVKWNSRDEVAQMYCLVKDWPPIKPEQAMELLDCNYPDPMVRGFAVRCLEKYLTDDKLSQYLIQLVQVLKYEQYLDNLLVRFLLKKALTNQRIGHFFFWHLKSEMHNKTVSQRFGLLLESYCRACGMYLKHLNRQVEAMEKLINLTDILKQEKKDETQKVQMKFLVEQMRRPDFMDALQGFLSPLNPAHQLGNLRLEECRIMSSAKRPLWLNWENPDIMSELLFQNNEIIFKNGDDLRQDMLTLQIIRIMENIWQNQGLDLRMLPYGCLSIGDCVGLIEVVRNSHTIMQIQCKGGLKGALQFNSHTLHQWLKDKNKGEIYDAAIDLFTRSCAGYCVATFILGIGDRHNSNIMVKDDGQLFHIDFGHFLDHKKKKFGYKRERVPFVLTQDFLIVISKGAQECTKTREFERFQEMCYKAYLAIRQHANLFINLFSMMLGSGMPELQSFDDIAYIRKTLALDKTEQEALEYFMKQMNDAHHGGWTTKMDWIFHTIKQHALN
Sequence of PI3K-alpha (P27986 whole entry partner, species assumed): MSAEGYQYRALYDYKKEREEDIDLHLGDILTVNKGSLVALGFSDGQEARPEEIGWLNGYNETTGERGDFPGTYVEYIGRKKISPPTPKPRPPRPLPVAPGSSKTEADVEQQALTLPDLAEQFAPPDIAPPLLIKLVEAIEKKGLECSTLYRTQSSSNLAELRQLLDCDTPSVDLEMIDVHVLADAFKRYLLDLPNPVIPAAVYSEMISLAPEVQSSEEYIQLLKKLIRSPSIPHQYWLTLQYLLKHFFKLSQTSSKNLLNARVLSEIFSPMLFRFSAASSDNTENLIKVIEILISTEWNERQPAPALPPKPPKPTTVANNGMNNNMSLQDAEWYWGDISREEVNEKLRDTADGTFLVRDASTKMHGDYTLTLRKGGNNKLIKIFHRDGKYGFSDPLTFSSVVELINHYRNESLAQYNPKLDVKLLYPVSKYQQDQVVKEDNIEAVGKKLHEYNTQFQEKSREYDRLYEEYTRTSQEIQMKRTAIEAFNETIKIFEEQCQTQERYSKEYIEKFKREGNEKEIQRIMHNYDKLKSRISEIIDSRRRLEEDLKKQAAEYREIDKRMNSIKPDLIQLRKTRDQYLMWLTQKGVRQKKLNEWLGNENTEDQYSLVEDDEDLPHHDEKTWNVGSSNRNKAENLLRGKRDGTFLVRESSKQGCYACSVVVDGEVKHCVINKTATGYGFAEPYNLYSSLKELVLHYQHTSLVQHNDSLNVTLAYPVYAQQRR

Sequence of PI3K-gamma (P48736 whole entry, species assumed): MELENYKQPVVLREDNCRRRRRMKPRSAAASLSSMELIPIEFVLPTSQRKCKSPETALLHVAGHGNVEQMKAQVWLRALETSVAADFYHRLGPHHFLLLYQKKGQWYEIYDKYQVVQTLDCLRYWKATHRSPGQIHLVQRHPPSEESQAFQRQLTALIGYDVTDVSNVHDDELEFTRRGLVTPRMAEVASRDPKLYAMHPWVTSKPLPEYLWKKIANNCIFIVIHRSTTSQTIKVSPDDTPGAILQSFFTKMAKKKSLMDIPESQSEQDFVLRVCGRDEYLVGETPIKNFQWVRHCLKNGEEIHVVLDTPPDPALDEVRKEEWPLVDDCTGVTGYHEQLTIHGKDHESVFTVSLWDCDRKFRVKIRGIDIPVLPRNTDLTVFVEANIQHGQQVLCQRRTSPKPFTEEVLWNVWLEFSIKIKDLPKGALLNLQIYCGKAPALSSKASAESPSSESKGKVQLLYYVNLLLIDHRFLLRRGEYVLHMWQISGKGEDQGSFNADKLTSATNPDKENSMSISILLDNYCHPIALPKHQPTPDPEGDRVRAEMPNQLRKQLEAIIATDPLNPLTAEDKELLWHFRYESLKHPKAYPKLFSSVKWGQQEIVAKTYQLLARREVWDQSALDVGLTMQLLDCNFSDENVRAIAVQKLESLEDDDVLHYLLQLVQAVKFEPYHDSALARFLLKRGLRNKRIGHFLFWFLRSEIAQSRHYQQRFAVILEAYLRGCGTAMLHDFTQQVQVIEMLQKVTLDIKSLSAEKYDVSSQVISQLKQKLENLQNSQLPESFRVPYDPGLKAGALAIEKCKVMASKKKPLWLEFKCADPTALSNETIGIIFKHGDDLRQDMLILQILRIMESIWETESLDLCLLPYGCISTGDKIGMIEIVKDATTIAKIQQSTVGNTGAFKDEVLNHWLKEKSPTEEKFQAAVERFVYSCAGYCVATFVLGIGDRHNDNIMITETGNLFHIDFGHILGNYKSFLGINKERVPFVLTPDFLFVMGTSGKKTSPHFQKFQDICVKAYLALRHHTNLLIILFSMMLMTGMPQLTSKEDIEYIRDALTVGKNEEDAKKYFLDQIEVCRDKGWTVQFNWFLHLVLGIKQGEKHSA

Compound | IC50 [1] [nM] | IC50 [2] [nM]
CN1CCN(c2ccc(NC(=O)Nc3ccc(-c4nc(-c5ccc(NC(=O)NC6CC6)cc5)nc(N5CC6CCC(C5)O6)n4)cc3)cc2)CC1 [Example 146, 1-cyclopropyl-3-(4-{4-[4-({[4-(4-methylpiperazin-1-yl)phenyl]carbamoyl}amino)phenyl]-6-(8-oxa-3-azabicyclo[3.2.1]oct-3-yl)-1,3,5-triazin-2-yl}phenyl)urea] | > 100000 | 
C[C@H]1COCCN1c1nc(-c2ccc(NC(=O)Nc3ccc(C(=O)N4CC[C@H](N(C)C)C4)cc3)cc2)nc(N2CCOC[C@@H]2C)n1 [Example 841, 1-(4-{4,6-bis[(3S)-3-methylmorpholin-4-yl]-1,3,5-triazin-2-yl}phenyl)-3-(4-{[(3S)-3-(dimethylamino)pyrrolidin-1-yl]carbonyl}phenyl)urea] | 108 | 
CC(C)N1CCCN(c2nc(-c3ccc(NC(=O)Nc4ccc(C(=O)N5CC[C@H](N(C)C)C5)cc4)cc3)nc(N3CCOCC3)n2)CC1 [Example 843, 1-(4-{[(3S)-3-(dimethylamino)pyrrolidin-1-yl]carbonyl}phenyl)-3-(4-{4-(morpholin-4-yl)-6-[4-(propan-2-yl)-1,4-diazepan-1-yl]-1,3,5-triazin-2-yl}phenyl)urea] | 291 | 28.5
CN(C)CCN(C)C(=O)c1ccc(NC(=O)Nc2ccc(-c3nc(C4CCOCC4)nc(N4CCOCC4)n3)cc2)cc1 [Example 834, N-[2-(dimethylamino)ethyl]-N-methyl-4-[({4-[4-morpholin-4-yl-6-(tetrahydro-2H-pyran-4-yl)-1,3,5-triazin-2-yl]phenyl}carbamoyl)amino]benzamide] | 10 | 0.75
C[C@H]1COCCN1c1nc(-c2ccc(NC(=O)Nc3ccc(C(=O)N4C5CCC4COC5)cc3)cc2)nc(N2CCOC[C@@H]2C)n1 [Example 839, 1-(4-{4,6-bis[(3S)-3-methylmorpholin-4-yl]-1,3,5-triazin-2-yl}phenyl)-3-[4-(3-oxa-8-azabicyclo[3.2.1]oct-8-ylcarbonyl)phenyl]urea] | 29 | 6.65
CC(C)N1CCCN(c2nc(-c3ccc(NC(=O)Nc4ccc(C(=O)N5CC[C@H](N(C)C)C5)cc4)cc3)nc(N3CCOC[C@@H]3C)n2)CC1 [Example 856, 1-(4-{[(3S)-3-(dimethylamino)pyrrolidin-1-yl]carbonyl}phenyl)-3-(4-{4-[(3S)-3-methylmorpholin-4-yl]-6-[4-(propan-2-yl)-1,4-diazepan-1-yl]-1,3,5-triazin-2-yl}phenyl)urea] | 532 | 28.5
CN1CCN(C(=O)c2ccc(NC(=O)Nc3ccc(-c4nc(N5CCOCC5)nc(N5CCOCC5)n4)cc3)cc2)CC1(C)C [Example 848, 1-{4-[4,6-di(morpholin-4-yl)-1,3,5-triazin-2-yl]phenyl}-3-{4-[(3,3,4-trimethylpiperazin-1-yl)carbonyl]phenyl}urea] | 6 | 1.05
CN(C)[C@H]1CCN(C(=O)c2ccc(NC(=O)Nc3ccc(-c4nc(C5CCOCC5)nc(N5CCOCC5)n4)cc3)cc2)C1 [Example 869, 1-(4-{[(3S)-3-(dimethylamino)pyrrolidin-1-yl]carbonyl}phenyl)-3-{4-[4-morpholin-4-yl-6-(tetrahydro-2H-pyran-4-yl)-1,3,5-triazin-2-yl]phenyl}urea] | 6.5 | 0.6
CC(C)N1CCCN(c2nc(-c3ccc(NC(=O)Nc4ccc(C(=O)N5CCCNCC5)cc4)cc3)nc(N3CCOCC3)n2)CC1 [Example 861, 1-[4-(1,4-diazepan-1-ylcarbonyl)phenyl]-3-(4-{4-(morpholin-4-yl)-6-[4-(propan-2-yl)-1,4-diazepan-1-yl]-1,3,5-triazin-2-yl}phenyl)urea] | 56 | 4
COCCNC(=O)c1ccc(NC(=O)Nc2ccc(-c3nc(N4CCOCC4)nc(N4CCCN(C(C)C)CC4)n3)cc2)cc1 [Example 860, N-(2-methoxyethyl)-4-{[(4-{4-(morpholin-4-yl)-6-[4-(propan-2-yl)-1,4-diazepan-1-yl]-1,3,5-triazin-2-yl}phenyl)carbamoyl]amino}benzamide] | 434 | 57
CC(C)N1CCCN(C(=O)c2ccc(NC(=O)Nc3ccc(-c4nc(N5CCOCC5)nc(N5CCCN(C(C)C)CC5)n4)cc3)cc2)CC1 [Example 862, 1-(4-{4-(morpholin-4-yl)-6-[4-(propan-2-yl)-1,4-diazepan-1-yl]-1,3,5-triazin-2-yl}phenyl)-3-(4-{[4-(propan-2-yl)-1,4-diazepan-1-yl]carbonyl}phenyl)urea] | 154 | 23.5
C[C@H]1COCCN1c1nc(-c2ccc(NC(=O)Nc3ccc(C(=O)N4CCC(C#N)CC4)cc3)cc2)nc(N2CCOC[C@@H]2C)n1 [Example 840, 1-(4-{4,6-bis[(3S)-3-methylmorpholin-4-yl]-1,3,5-triazin-2-yl}phenyl)-3-{4-[(4-cyanopiperidin-1-yl)carbonyl]phenyl}urea] | 15 | 5.15
CC(C)N1CCCN(c2nc(-c3ccc(NC(=O)Nc4ccc(C(=O)N5CC[C@@H](N(C)C)C5)cc4)cc3)nc(N3CCOCC3)n2)CC1 [Example 847, 1-(4-{[(3R)-3-(dimethylamino)pyrrolidin-1-yl]carbonyl}phenyl)-3-(4-{4-(morpholin-4-yl)-6-[4-(propan-2-yl)-1,4-diazepan-1-yl]-1,3,5-triazin-2-yl}phenyl)urea] | 87.5 | 10.5
C[C@H]1CN(C(=O)c2ccc(NC(=O)Nc3ccc(-c4nc(N5CCOCC5)nc(N5CCOCC5)n4)cc3)cc2)CCN1C [Example 864, 1-(4-{[(3S)-3,4-dimethylpiperazin-1-yl]carbonyl}phenyl)-3-{4-[4,6-di(morpholin-4-yl)-1,3,5-triazin-2-yl]phenyl}urea] | 7.5 | 1
C[C@H]1CN(C(=O)c2ccc(NC(=O)Nc3ccc(-c4nc(N5CCOCC5)nc(N5CCOCC5)n4)cc3)cc2)CCN1C1CCC1 [Example 863, 1-(4-{[(3S)-4-cyclobutyl-3-methylpiperazin-1-yl]carbonyl}phenyl)-3-{4-[4,6-di(morpholin-4-yl)-1,3,5-triazin-2-yl]phenyl}urea] | 8 | 2.1
COc1ccc(NC(=O)Nc2ccc(-c3nc(N4CCOCC4)nc(N4CCOCC4)n3)cc2)c(OC)c1 [Example 7, 1-(2,4-dimethoxyphenyl)-3-[4-(4,6-dimorpholin-4-yl-1,3,5-triazin-2-yl)phenyl]-urea] | > 100000 | 
O=C(Nc1ccncc1)Nc1ccc(-c2nc(OC3CNC3)nc(N3CCOCC3)n2)cc1 [Example 835, 1-{4-[4-(azetidin-3-yloxy)-6-morpholin-4-yl-1,3,5-triazin-2-yl]phenyl}-3-pyridin-4-ylurea] | 18.5 | 4.15
CC(C)N1CCCN(c2nc(-c3ccc(NC(=O)Nc4ccc(C(=O)N5CCN(C)CC5)cc4)cc3)nc(N3CCOC[C@@H]3C)n2)CC1 [Example 855, 1-(4-{4-[(3S)-3-methylmorpholin-4-yl]-6-[4-(propan-2-yl)-1,4-diazepan-1-yl]-1,3,5-triazin-2-yl}phenyl)-3-{4-[(4-methylpiperazin-1-yl)carbonyl]phenyl}urea] | 864 | 54
CN1CCN(C(=O)c2ccc(NC(=O)Nc3ccc(-c4nc(C5CCOCC5)nc(N5CCOCC5)n4)cc3)cc2)CC1(C)C [Example 865, 1-{4-[4-(morpholin-4-yl)-6-(tetrahydro-2H-pyran-4-yl)-1,3,5-triazin-2-yl]phenyl}-3-{4-[(3,3,4-trimethylpiperazin-1-yl)carbonyl]phenyl}urea] | 12 | 2.45
CC(C)N1CCCN(c2nc(-c3ccc(NC(=O)Nc4ccc(C(=O)NCCCN(C)C)cc4)cc3)nc(N3CCOCC3)n2)CC1 [Example 857, N-[3-(dimethylamino)propyl]-4-{[(4-{4-(morpholin-4-yl)-6-[4-(propan-2-yl)-1,4-diazepan-1-yl]-1,3,5-triazin-2-yl}phenyl)carbamoyl]amino}benzamide] | 146 | 10
CC1CNCCN1C(=O)c1ccc(NC(=O)Nc2ccc(-c3nc(N4CCOCC4)nc(N4CCOCC4)n3)cc2)cc1 (stereo not drawn) [Example 845, 1-{4-[4,6-di(morpholin-4-yl)-1,3,5-triazin-2-yl]phenyl}-3-{4-[(2-methylpiperazin-1-yl)carbonyl]phenyl}urea] | 2.75 | 0.25
C[C@@H]1CN(C(=O)c2ccc(NC(=O)Nc3ccc(-c4nc(N5CCOCC5)nc(N5CCOCC5)n4)cc3)cc2)CCN1C1CCC1 [Example 851, 1-(4-{[(3R)-4-cyclobutyl-3-methylpiperazin-1-yl]carbonyl}phenyl)-3-{4-[4,6-di(morpholin-4-yl)-1,3,5-triazin-2-yl]phenyl}urea] | 5.6 | 0.85
O=C(Nc1ccc(-c2nc(N3CCOCC3)nc(N3CCOCC3)n2)cc1)Nc1ccc(C(O)(C(F)(F)F)C(F)(F)F)cc1 [Example 86, 1-[4-(4,6-dimorpholin-4-yl-1,3,5-triazin-2-yl)phenyl]-3-{4-[2,2,2-trifluoro-1-hydroxy-1-(trifluoromethyl)ethyl]phenyl}urea] | 444 | 122
1-[4-(4,6-dimorpholin-4-yl-1,3,5-triazin-2-yl)phenyl]-3-[3-(1-hydroxyethyl)phenyl]urea [Example 88] | 74 | 8
Cc1ccc(NC(=O)Nc2ccc(-c3nc(NC4CN(C(=O)OC(C)(C)C)C4)nc(N4CCOCC4)n3)cc2)cc1 [Example 16, tert-butyl 3-{[4-(4-{[(4-methylphenyl)carbamoyl]amino}phenyl)-6-morpholin-4-yl-1,3,5-triazin-2-yl]amino}azetidine-1-carboxylate] | > 100000 | 
CN(C)[C@@H]1CCN(C(=O)c2ccc(NC(=O)Nc3ccc(-c4nc(N5CCOCC5)nc(N5CCOCC5)n4)cc3)cc2)C1 [Example 831, 1-(4-{[(3R)-3-(dimethylamino)pyrrolidin-1-yl]carbonyl}phenyl)-3-[4-(4,6-dimorpholin-4-yl-1,3,5-triazin-2-yl)phenyl]urea] |  | 0.95
CN1CCN(C(=O)c2ccc(NC(=O)Nc3ccc(-c4nc(C5CCOCC5)nc(N5CCOCC5)n4)cc3)cc2)CC1 [Example 830, 1-{4-[(4-methylpiperazin-1-yl)carbonyl]phenyl}-3-{4-[4-morpholin-4-yl-6-(tetrahydro-2H-pyran-4-yl)-1,3,5-triazin-2-yl]phenyl}urea] |  | 2.12
